The values that follow come from patent US20130065314A1, “ALGAL TRANSFORMATION SYSTEMS, COMPOSITIONS AND METHODS” (PHYTOCENTRIC BIOTECH INC., priority 2011, published 2013).

One test relates to linearized plasmid DNA. As to the kind of experiment: Gel mobility shift assay of peptide plasmid DNA complex formation. As to conditions: 200 ng linearized plasmid DNA, 1% agarose gel.
The subject of test [1] is C. reinhardtii (Nit1-305,cw-15). As to the kind of experiment: PCR screening of transformant colonies (Zeocin specific primers). As to conditions: pSP124S linearized with KpnI, no pretreatment; 155 bp expected product (FIG. 11 panel A). It is filed as cell-based, Chlamydomonas reinhardtii. As for the experimental part:
Transformed colonies were picked from the selection plates and inoculated into liquid selection media to multiply cells to be used for genomic DNA isolation. Genomic DNA from 1×10^5 cells of untransformed algae and the transformants were isolated using DNeasy™ Blood & Tissue Kit (QIAGEN®). ReadyMix™ Taq PCR Reaction Mix with MgCl2 (Sigma, Canada) was used to prepare 20 μl PCR reactions. Thermal cycling conditions were initial denaturation at 95° C. for 5 minutes and 40 cycles of 95° C. for 30 s, 65° C. for 30 s and 72° C. for 1.5 min. A final primer extension cycle was performed at 72° C. for 10 min.

Test [2] shares this test system. As to the kind of experiment: Transformation of algal cells with plasmid DNA and CPP, selection on Zeocin plates. Type of test: cell-based, Chlamydomonas reinhardtii.
Method: Transformation experiments were conducted. […] Cell culture was grown in 900 ml of SGII+NH4NO3 medium, divided in 3 aliquots into 500 ml Erlenmeyer flasks each containing 300 ml of the culture. The culture was grown for two days until the cell growth reached mid-log phase and cell density reached to 1×10^6 cells ml^−1 (OD at 680 nm=0.6-0.8). Cells were collected at 3000 rpm for 10 minutes to obtain 9×10^8 cells in total. In all transformation experiments for Chlamydomonas reinhardtii, SGII+NH4NO3 medium was used in downstream experimental steps. […] Cells were washed after grown in SGII-NH4NO3 medium to remove NH4 traces. Cells were divided into 3 aliquots each of 3×10^8 cells. Two aliquots of the harvested cells were treated with cell wall degrading enzymes one with cellulase from Aspergillus niger (Sigma, Canada) and the other with lysozyme from chicken egg white (Sigma, Canada).
Lysozyme treatment: Lysozyme from chicken white egg was purchased (Sigma-Aldrich, Canada). Enzymatic assay protocol was modified from Sigma-Aldrich product information publication. For cell lysis/cell wall disruption, use a freshly prepared lysozyme solution (10 mg/ml) in sterilized 10 mM Tris-HCL, pH 8.0. Add 25 μl of a freshly prepared lysozyme to the required number (−5.0×10^7) of cells/transformation reaction, mix by vortexing for 3 seconds. Incubate the lysis mixture for 15 minutes at 37° C. […] Centrifuge the cells and discard the supernatant containing lysozyme. To stop the reaction, wash the cells twice with media and collect the cells at 3000 rpm for 10 minutes. Proceed to downstream applications and/or transformation experiment.
Cellulase treatment: Cellulase (EC 3.2.1.4) was purchased from Sigma-Aldrich, Canada. Enzymatic assay protocol was modified from Sigma-Aldrich product information publication. Just before use, prepare solution containing 8 units/ml (26.7 mg/ml) of cellulase in sterilized cold distilled water. Add 500 μl of a freshly prepared cellulase solution to the required number (−5.0×10^7) of cells, immediately mix by swirling. Incubate the lysis mixture for 15 minutes at 37° C. […] Centrifuge the cells and discard the supernatant containing lysozyme. To stop the reaction, wash the cells twice and collect the cells at 3000 rpm for 10 minutes. Proceed to downstream applications and/or transformation experiment.
The third aliquot was not treated with any enzyme.
After enzymatic treatments, the cells were washed twice with the medium to stop the reaction. Cells of each aliquot were re-suspended in fresh medium (cell concentration=3×10^8ml^−1) and used 300 μl of cell suspension (−5×10^7 number of cell) in each transformation reaction. Cells were transferred to 15 ml Falcon tube containing sterilized 300 mg glass beads of 0.5 mm size. Just prior to starting the next step, 1 μg plasmid DNA and one of the four ATT(s) tested were mixed. One of the four ATT-plasmid mixtures were added to the algal cells and beads suspended in media. The cells, ATT and DNA mixture and the beads were vortexed for 15 seconds. 10 ml of medium was added to the transformation reaction, and the tubes were incubated overnight with shaking at 100 rpm in incubator to allow cell recovery and expression of the gene. The cell suspensions were transferred to fresh tubes to remove beads and cells were spun by centrifugation for 5 minutes at 3000 rpm. The cells were re-suspended in 2 ml of 0.5% agar medium by gentle pipetting and were plated on 2% agar medium supplemented with 10 μg ml^−1 Zeocin.
[3] abbreviates: pSP124S linearized with EcoRI, 0.5 mm bead disruption, Zeocin 10 μg/ml (FIG. 9).
[4] abbreviates: pSP124S linearized with KpnI, 0.5 mm bead disruption, Zeocin 10 μg/ml (FIG. 8).

Like-named read-outs stand apart in the source and are kept apart here.

Method for linearized plasmid DNA: Non-covalent attachment was tested using a gel mobility shift assay. The gel mobility shift assay was used to determine the minimum peptide concentration needed bind to plasmid DNA and cause it to shift during electrophoresis. Based on a peptide-DNA charge ratio calculation increasing concentrations of peptide were added to 200 ng of linearized plasmid DNA until the charge of the DNA was neutralized by the peptide causing a mobility shift in the DNA during electrophoresis in a 1% agarose gel.

Regarding Tat (48-57) (GRKKRRQRRR) [ATT2], the “amount of peptide at which the shift occurred” value in the test on linearized plasmid DNA is 80 ng. Besides, the “PCR product with Zeocin specific primers in transformant colonies” value in test [1] is “Lane 7 and 8 are positive”. Besides, the “transformed colonies on selection plate” value in test [2] (setting [3]) and in test [2] (setting [4]) was “transformed” each time.

As for Transportan [ATT1], the “amount of peptide at which the shift occurred” value with linearized plasmid DNA was determined as 339 ng. In addition, the “PCR product with Zeocin specific primers in transformant colonies” value in test [1] is “Lane 1 is positive”. In addition, in test [2], the “transformation rate compared with the other three peptides” value is listed as “higher” and the “transformed colonies on selection plate” value is “transformed”.

As to (Arg)9 (RRRRRRRRR) [ATT4], the “amount of peptide at which the shift occurred” value with linearized plasmid DNA came out at 120 ng. Also, the “transformed colonies on selection plate” value in test [2] (setting [3]) and in test [2] (setting [4]) was “transformed” throughout.
